# Columns and labels:
# Format in all cases: biochemical
# [1] = molecular target: T1, Arabidopsis thaliana BIO3-BIO1 (BioDA) mutants (Arabidopsis thaliana, UniProt B0F481, A507S); experiment: BIO3-BIO1 mutant enzyme activity in the presence of herbicide, percentage inhibition (fluorometric DAPA assay); conditions: read-out: percentage inhibition
# T1 construct: with the predicted N-terminal mitochondrial transit peptide removed; 6xHis-tag (N); thrombin cleavage site (N); made in house; host or cells: E. coli BL21 (DE3) bioA
# T1 sequence (B0F481 23-833 A507S): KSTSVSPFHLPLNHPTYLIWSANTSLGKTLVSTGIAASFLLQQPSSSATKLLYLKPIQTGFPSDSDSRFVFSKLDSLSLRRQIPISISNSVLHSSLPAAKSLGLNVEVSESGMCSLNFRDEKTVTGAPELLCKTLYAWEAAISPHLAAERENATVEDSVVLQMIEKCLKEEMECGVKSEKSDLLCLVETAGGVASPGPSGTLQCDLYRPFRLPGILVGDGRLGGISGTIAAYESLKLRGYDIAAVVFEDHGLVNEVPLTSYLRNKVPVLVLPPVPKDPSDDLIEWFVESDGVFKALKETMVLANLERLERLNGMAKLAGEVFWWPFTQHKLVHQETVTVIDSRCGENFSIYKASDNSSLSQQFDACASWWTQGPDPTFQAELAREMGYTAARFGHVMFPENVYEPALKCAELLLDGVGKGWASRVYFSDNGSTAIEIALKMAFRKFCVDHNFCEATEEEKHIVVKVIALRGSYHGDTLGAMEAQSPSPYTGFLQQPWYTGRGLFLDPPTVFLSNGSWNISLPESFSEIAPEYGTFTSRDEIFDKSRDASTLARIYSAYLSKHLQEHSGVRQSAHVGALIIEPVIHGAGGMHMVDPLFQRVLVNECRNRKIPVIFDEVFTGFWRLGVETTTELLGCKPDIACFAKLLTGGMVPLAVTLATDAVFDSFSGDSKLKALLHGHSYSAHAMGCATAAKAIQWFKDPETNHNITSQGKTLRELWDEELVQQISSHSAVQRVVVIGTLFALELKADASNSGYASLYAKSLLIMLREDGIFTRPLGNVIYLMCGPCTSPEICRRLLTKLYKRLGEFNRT
# Procedure, shortened: (§1)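 Percentage inhibition compares activity at one of three herbicide concentrations against DMSO, from o-phthalaldehyde-derivatised DAPA fluorescence (ex 410, em 470 nm). Purified N-His BIO3-BIO1 variants (50 nM, E. coli-expressed) saw herbicide 10 min at 20 °C in pH 8.6 EPPS buffer, then 20 μM KAPA plus 100 μM spermidine for 75 min at 20 °C.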
# [2] = molecular target: T2, Arabidopsis thaliana BIO3-BIO1 (BioDA) mutants (Arabidopsis thaliana, UniProt B0F481, DEL508-508); experiment: as above; conditions: read-out: percentage inhibition
# T2 construct: with the predicted N-terminal mitochondrial transit peptide removed; 6xHis-tag (N); thrombin cleavage site (N); made in house; host or cells: E. coli BL21 (DE3) bioA
# T2 sequence (B0F481 other isoform, or with tags, fused parts or gaps DEL508-508): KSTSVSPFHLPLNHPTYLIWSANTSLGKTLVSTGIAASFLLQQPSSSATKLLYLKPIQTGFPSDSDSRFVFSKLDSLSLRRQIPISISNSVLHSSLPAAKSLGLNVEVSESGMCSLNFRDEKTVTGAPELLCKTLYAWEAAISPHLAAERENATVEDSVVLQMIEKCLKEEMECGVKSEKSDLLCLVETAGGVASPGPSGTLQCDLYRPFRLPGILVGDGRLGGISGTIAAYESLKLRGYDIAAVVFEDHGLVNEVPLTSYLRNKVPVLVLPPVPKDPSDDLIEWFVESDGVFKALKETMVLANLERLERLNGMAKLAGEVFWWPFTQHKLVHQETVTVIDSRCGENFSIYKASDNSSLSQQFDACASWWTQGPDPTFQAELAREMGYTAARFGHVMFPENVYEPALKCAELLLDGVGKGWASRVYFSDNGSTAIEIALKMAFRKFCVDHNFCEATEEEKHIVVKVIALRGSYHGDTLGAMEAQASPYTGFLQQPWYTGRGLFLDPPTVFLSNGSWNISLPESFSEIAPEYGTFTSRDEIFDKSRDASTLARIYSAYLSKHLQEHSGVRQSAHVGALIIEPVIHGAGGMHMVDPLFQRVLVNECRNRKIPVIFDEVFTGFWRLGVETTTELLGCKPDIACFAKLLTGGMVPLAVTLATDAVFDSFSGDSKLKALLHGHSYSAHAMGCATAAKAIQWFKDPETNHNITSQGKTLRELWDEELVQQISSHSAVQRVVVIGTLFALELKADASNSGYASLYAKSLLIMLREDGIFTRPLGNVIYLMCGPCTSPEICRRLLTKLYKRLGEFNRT
# Procedure, shortened: as §1
# [3] = molecular target: T3, Arabidopsis thaliana BIO3-BIO1 (BioDA) mutants (Arabidopsis thaliana, UniProt B0F481, A507K); experiment: as above; conditions: read-out: percentage inhibition
# T3 construct: with the predicted N-terminal mitochondrial transit peptide removed; 6xHis-tag (N); thrombin cleavage site (N); made in house; host or cells: E. coli BL21 (DE3) bioA
# T3 sequence (B0F481 23-833 A507K): as the sequence (B0F481 23-833 A507S) above, with S485K counted along it
# Procedure, shortened: as §1
# [4] = molecular target: T4, Arabidopsis thaliana BIO3-BIO1 (BioDA) mutants (Arabidopsis thaliana, UniProt B0F481, Q506A); experiment: as above; conditions: read-out: percentage inhibition
# T4 construct: with the predicted N-terminal mitochondrial transit peptide removed; 6xHis-tag (N); thrombin cleavage site (N); made in house; host or cells: E. coli BL21 (DE3) bioA
# T4 sequence (B0F481 23-833 Q506A): as the sequence (B0F481 23-833 A507S) above, with Q484A, S485A counted along it
# Procedure, shortened: as §1
# [5] = tested on: Cryptosporidium andersoni BioA; experiment: BioA enzyme activity with DMSO or herbicide in vitro; conditions: 0.5 μM, spermidine in substrate mix
# Source text: A pet-24 plasmid containing a DNA sequence encoding each identified variant mutant of BIO3-BIO1 derived from Arabidopsis thaliana from example 5 above, as shown in Table 13 below and as shown in full in SEQ ID NOs: 15 to 155, codon-optimised for expression in E. coli, with an N-terminal 6×His-tag and thrombin cleavage site and under control of a T7 promoter, and was synthesised by Twist Bioscience, in a similar manner to SEQ ID NO:311. These plasmids were then expressed in E. coli BL21 (DE3) bioA with 50 μg/mL kanamycin and 25 μg/mL chloramphenicol selection. Overnight cultures grown at 37° C. were used to inoculate 8×500 mL AIM in shake flasks at a ratio of 1:100. Cultures were grown at 37° C., 200 rpm for 3.5 hours and then overnight at 20° C. Cells were harvested by centrifugation for 30 minutes at 10 000 g. Cells were stored at −80° C. until extraction. 30 g of cell pellet from was thawed in 120 mL of IMAC buffer A (20 mM HEPES pH7.5, 25 mM imidazole, 500 mM sodium chloride, 0.15 mM pyridoxal phosphate, 0.5 mM TCEP, 1× complete Protease Inhibitor Tablet (Roche)). The resuspension was passed through a cell disrupter at 18 000 PSI and centrifuged at 50 000 g for 25 minutes at 4° C. The His-tagged BIO3-BIO1 protein was purified from the extract supernatant on an AKTA avant chromatography system (Cytiva) using a HisTrap FF column and eluted in IMAC buffer B ((20 mM HEPES pH7.5, 500 mM imidazole, 500 mM sodium chloride, 0.15 mM pyridoxal phosphate, 0.5 mM TCEP) followed by SEC using a HiLoad 26/60 Superdex200 column in SEC buffer (25 mM HEPES pH7.5, 150 mM sodium chloride, 0.15 mM pyridoxal phosphate, 0.5 mM TCEP). Protein concentration was measured and calculated using the absorbance at 280 nm. Extracts were diluted 1 in 4 and 10 uL was analysed by SDS PAGE.
# To measure BIO3-BIO1 mutant enzyme activity in the presence of herbicide, herbicides were incubated with 20 μL of enzyme mix (100 mM EPPS pH 8.6, 0.1 mM pyridoxal phosphate, 0.1 mg/mL BSA, 50 nM BIO3-BIO1 enzyme) for 10 minutes at 20° C. in a well of a 96-well half-area black plate, followed by the addition of 20 μL of substrate mix (final concentration of 100 mM EPPS pH 8.6, 0.1 mM pyridoxal phosphate, 0.1 mg/mL BSA, 100 μM spermidine, 20 μM KAPA, 100 mM NaCO3) and further incubation for 75 minutes at 20° C. The reaction was terminated by the addition of 50 μL of derivatisation mix (final concentration of 250 mM borate NaOH pH 9.4, 3.6 mM o-phthalaldehyde, 7 mM β-mercaptoethanol, 17% (v/v) ethanol, 3.6% (v/v) methanol). The fluorescent product produced by the reaction of DAPA with o-phthalaldehyde and 7 mM β-mercaptoethanol was measured at 470 nm after excitation at 410 nm. The percentage inhibition was calculated as the activity in the presence of one of three concentrations of each herbicide compound A to M (note that the compounds labelled as A to M are identified hereinabove in the relevant section of the description) as a percentage of the activity in DMSO (Table 12 and 13). The percentage activity versus WT was also calculated and is shown in Table 13 and 14 (NT indicates mutation not tested in table 13, note that these mutations are tested at different compound concentrations for compounds L, M and C, and the results are shown in table 14).
# Protein of Escherichia coli BioA (SEQ ID NO:159), Pantoea ananatis BioA (SEQ ID NO:167), Streptomyces viridochromogenes BioA (SEQ ID NO:170), Cryptosporidium andersoni BioA (SEQ ID NO:160), Stenotrophomonas maltophilia BioA (SEQ ID NO:171), Chroococcidiopsis BioA (SEQ ID NO:184), Pedobacter hartonius BioA (SEQ ID NO:181), Chitinophaga filiformis BioA (SEQ ID NO:180), Tenacibaculum adriaticum BioA (SEQ ID NO:185) and Bacillus subtilis BioA (SEQ ID NO:166) was prepared using the method in Example 6. BioA enzyme activity in the presence of herbicide or DMSO in vitro for each of the proteins was assayed according to the enzyme assay method in Example 6, except in some reactions spermidine was replaced with 2 mM S-Adenosyl methionine.
Compound,inhibition at 1 µM [1],inhibition at 1 µM [2],inhibition at 1 µM [3],inhibition at 1 µM [4],% Inhibition relative to DMSO treatment [5]
"CCOC(=O)c1nn(-c2ccc3c(c2)OC(F)(F)C(F)(F)O3)c2cccc(C(C)=O)c2c1=O [Compound A, ethyl 5-acetyl-4-oxo-1-(2,2,3,3-tetrafluoro-1,4-benzodioxin-6-yl)cinnoline-3-carboxylate]",63%,22%,81%,0%,–
"CCn1c(Cn2ccc(C(F)(F)F)n2)cc(=O)c(C(=O)O)c1-c1ccc(Cl)c(Cl)c1 [Compound L, 2-(3,4-dichlorophenyl)-1-ethyl-4-oxo-6-[[3-(trifluoromethyl)pyrazol-1-yl]methyl]pyridine-3-carboxylic acid]",–,–,–,–,0%

# — patent US20260226493A1, “HERBICIDE RESISTANT PLANTS” (SYNGENTA CROP PROTECTION AG, priority 2023, published 2026)
